These results are taken from patent US9179694B2, “Method and composition for enhancing milk production and milk component concentrations” (PURINA ANIMAL NUTRITION LLC, priority 2003, dated 2015).

Structures are written as SMILES. Marks after values point to notes of the source that are not given here.

This assay in a line: Non-esterified fatty acid (NEFA) concentration in blood in sorbitol feeding trials. The note with it: for lower concentration of NEFA in the blood: at about the time of giving birth. The assay is classed as in vivo, Holstein cows. As to the method: To determine the weight percent of non-esterified fatty acid NEFA, wet basis, in a sample of blood, the blood sample is analyzed by an enzymatic colorimetric method (ACS-ACOD) using the NEFA C diagnostic kit (WAKO Chemicals USA, Richmond, Va.) in combination with an Hitachi 704 Automated Chemistry Analyzer (Hitachi Ltd., Tokyo, Japan). The enzymatic colorimetric method utilizes acyl-CoA synthethase (ACS) and acyl-CoA oxidase (ACOD) to produce a substance that may be measured colorimetrically. The NEFA analysis is conducted in accordance with the NEFA C ACS-ACOD Method instructions that WAKO Chemicals USA provides along with the NEFA C diagnostic kit.
Each cow of each of the six different trials (Control Trial #1, Control Trial #2, Pre-Partum Trial #1, Pre-Partum Trial #2, Pre/Post Trial #1, and Pre/Post Trial #2) was milked three times daily and the weight of produced milk by each cow was recorded at each milking. The milk from each cow was sampled once per week (⅓ of the sample volume from each of the three milkings occurring on the weekly milk sampling day) and was analyzed for true protein, total fat, lactose, and total solids, as detailed in the property determination and characterization techniques presented above. Additionally, samples of blood were periodically obtained from each cow during the four trials (Control Trial 2, Pre-Partum Trial #2, Pre/Post Trial #1, and Pre/Post Trial #2) encompassed in Example Two and were analyzed for non-esterified fatty acid (NEFA) content as detailed in the property determination and characterization techniques presented above. No NEFA analysis was conducted on the cows employed in Control Trial #1 or Pre-Partum Trial #1 that are the subject of Example One.
Example Two includes Control Trial #2, Pre-Partum Trial #2, Pre/Post Trial #1, and Pre/Post Trial #2. Only multiparious, Holstein cows were included in Control Trial #2, Pre-Partum Trial #1, Pre/Post Trial #1, and Pre/Post Trial #2. Eighteen multiparious cows were included in both Control Trial #2 and Pre-Partum Trial #2, while sixteen multiparious cows were included in Pre/Post Trial #1 and seventeen multiparious cows were included in Pre/Post Trial #2.

With `OC[C@@H](O)[C@@H](O)[C@H](O)[C@@H](O)CO` [sorbitol], the “Non-Esterified Fatty Acid (NEFA) Concentration in Blood” value (“Non-Esterified Fatty Acid” below) is listed as 0.470^ab mEq/l (Pre-Partum Trial #2 (75/0/100 g/day in wk −3..−1/+1..+4/+5..+8), multiparious cows, day 0 (Calving)); 0.372 mEq/l (Pre-Partum Trial #2 (75/0/100 g/day in wk −3..−1/+1..+4/+5..+8), multiparious cows, day +10); 0.122 mEq/l (Pre-Partum Trial #2 (75/0/100 g/day in wk −3..−1/+1..+4/+5..+8), multiparious cows, day −7); 0.103 mEq/l (Pre-Partum Trial #2 (75/0/100 g/day in wk −3..−1/+1..+4/+5..+8), multiparious cows, day −21); 0.416^a mEq/l (Pre/Post Trial #1 (150/125/100 g/day in wk −3..−1/+1..+4/+5..+8), multiparious cows, day 0 (Calving)); 0.416^b mEq/l (Pre/Post Trial #1 (150/125/100 g/day in wk −3..−1/+1..+4/+5..+8), multiparious cows, day 0 (Calving), two-trial comparison with Control Trial #2 (Table 27)). Further, the “Non-Esterified Fatty Acid” value is, setting by setting: (Pre/Post Trial #1 (150/125/100 g/day in wk −3..−1/+1..+4/+5..+8), multiparious cows, day +10) 0.476 mEq/l; (Pre/Post Trial #1 (150/125/100 g/day in wk −3..−1/+1..+4/+5..+8), multiparious cows, day +10, two-trial comparison with Control Trial #2 (Table 27)) 0.476 mEq/l; (Pre/Post Trial #1 (150/125/100 g/day in wk −3..−1/+1..+4/+5..+8), multiparious cows, day −7) 0.107 mEq/l; (Pre/Post Trial #1 (150/125/100 g/day in wk −3..−1/+1..+4/+5..+8), multiparious cows, day −7, two-trial comparison with Control Trial #2 (Table 27)) 0.107 mEq/l; (Pre/Post Trial #1 (150/125/100 g/day in wk −3..−1/+1..+4/+5..+8), multiparious cows, day −21) 0.141 mEq/l; (Pre/Post Trial #1 (150/125/100 g/day in wk −3..−1/+1..+4/+5..+8), multiparious cows, day −21, two-trial comparison with Control Trial #2 (Table 27)) 0.141 mEq/l. Besides, the “Non-Esterified Fatty Acid” value is on record as 0.637^ab mEq/l (Pre/Post Trial #2 (75/75/100 g/day in wk −3..−1/+1..+4/+5..+8), multiparious cows, day 0 (Calving)); 0.556 mEq/l (Pre/Post Trial #2 (75/75/100 g/day in wk −3..−1/+1..+4/+5..+8), multiparious cows, day +10); 0.119 mEq/l (Pre/Post Trial #2 (75/75/100 g/day in wk −3..−1/+1..+4/+5..+8), multiparious cows, day −7); 0.114 mEq/l (Pre/Post Trial #2 (75/75/100 g/day in wk −3..−1/+1..+4/+5..+8), multiparious cows, day −21). Where the note is “Pre/Post Trial #1 (150/125/100 g/day) versus Control Trial #2, multiparious cows, at calving (Table 27)”, the “lower NEFA concentrations in blood” value was found to be 42%. In addition, the “lower concentration of NEFA in the blood” value came out at 42% (Pre/Post Trial #2 (so in the source) versus Control Trial #2, multiparious cows); 28% (average of means of Pre-Partum Trial #2, Pre/Post Trial #1 and Pre/Post Trial #2 versus Control Trial #2, multiparious cows). Also, the “NEFA concentrations in blood compared with control” value (all three sorbitol feeding trials (Pre-Partum Trial #2, Pre/Post Trial #1, Pre/Post Trial #2), multiparous cows, the week before calving and at calving) is “lower than the NEFA concentrations in blood found during Control Trial #2”.
